Test results taken from patent US10391086B2, “Use of EP4 receptor antagonists in the treatment of cartilage disease” (AskAt Inc., priority 2013, dated 2019).

Test system: bovine full-depth cartilage explants
Test: Ex vivo bovine cartilage explant model
Format: cell-based
Details: serum-free culture, biomarkers (P2NP, C2M, AGNx1, AGNx2) in supernatant at day 7, 14 and 21, FIG. 1 (C2M) and FIG. 2 (AGNx2), oncostatin M + TNF-alpha
Procedure: The method of this assay is descrived in the following literature (Rheumatol Int. 2013 February; 33(2):401-11).
Full-depth cartilage explants were harvested from the knee of either back legs of a cow less than 24 month old. All the FDC explants are divided into different treatment group according to the explants weight and metabolic activity (viability) measured by Alamar Blue. Compounds were freshly added to the explants at each media change. The explants were cultured in serum-free conditions. Supernatants retrieved from the culture were analyzed by biomarkers (P2NP, C2M, AGNx1, AGNx2) at day 7, 14 and 21.

Structure (SMILES) | inhibition of cartilage destruction
CCc1nc2c(C)nc(C)cc2n1-c1ccc(CCNC(=O)NS(=O)(=O)c2ccc(C)cc2)cc1 [Compound A, 3-[2-(4-{2-ethyl-4,6-dimethyl-1H-imidazo[4,5-c]pyridin-1-yl}phenyl)ethyl]-1-[(4-methylbenzene)sulfonyl]urea] | dose-dependent inhibition of cartilage destruction
C[C@H](NC(=O)c1cc(Cl)cnc1Oc1cccc(F)c1)c1ccc(C(=O)O)cc1 [Compound B, 4-[(1S)-1-({[5-chloro-2-(3-fluorophenoxy)pyridin-3-yl]carbonyl}amino)ethyl]benzoic acid] | dose-dependent inhibition of cartilage destruction
